A word on the MIC: it is the lowest concentration found to suppress growth. Lower therefore signals inhibition by little substance. For orientation: pIC50 means the negative decadic logarithm of the IC50, by convention in mol/L. Read a low pIC50 as a large IC50.

Test [1] concerns Streptococcus pneumoniae. Nature of the test: Antibacterial activity against Streptococcus pneumoniae KU197. Format: functional.
Test [2] has as its target T1, Enoyl-(Acyl-carrier-protein) reductase (Streptococcus pneumoniae, UniProt Q9FBC5).
T1 sequence (Q9FBC5 whole entry): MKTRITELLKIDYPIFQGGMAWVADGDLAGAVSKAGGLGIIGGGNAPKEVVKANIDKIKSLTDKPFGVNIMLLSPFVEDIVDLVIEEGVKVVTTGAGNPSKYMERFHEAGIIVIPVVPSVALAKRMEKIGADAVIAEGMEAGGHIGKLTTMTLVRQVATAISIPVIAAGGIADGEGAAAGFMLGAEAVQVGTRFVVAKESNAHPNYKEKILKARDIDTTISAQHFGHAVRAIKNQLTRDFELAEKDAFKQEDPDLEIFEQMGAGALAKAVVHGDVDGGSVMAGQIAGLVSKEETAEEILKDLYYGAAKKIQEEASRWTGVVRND
Nature of the test: Inhibition of Streptococcus pneumoniae KU197 FabK.

A short description of test [3]: Inhibition of Escherichia coli FabI.

pIC50: −log10 of the molar value. Converted amounts (≈) assume the structure as drawn. Some results are limits rather than exact numbers.

As to `CS(=O)(=O)c1ccc2nc(NC(=O)NCc3cccnc3)sc2c1`, the MIC in test [1] was above 32 µg/mL. Moreover, in test [2], the pIC50 was 4.62.
The compound `O=C(Nc1nc2ccccc2s1)OCc1nc2ccccc2[nH]1` registered a minimal inhibitory concentration (MIC) in test [1] above 32 µg/mL. The same compound had a pIC50 in test [2] below 4.49.
As for `COc1cccc2sc(NC(=O)NCc3nc4ccccc4[nH]3)nc12`, the pIC50 in test [2] and in test [3] was below 4.49 throughout.
As to `COc1ccc2sc(NC(=O)NCc3nc4ccccc4[nH]3)nc2c1`, the pIC50 in test [2] and in test [3] was below 4.49 throughout.
`CS(=O)(=O)c1ccc2nc(NC(=O)NCc3nc4ccccc4[nH]3)sc2c1`: in test [1], the lowest concentration to inhibit growth (MIC) was 4 µg/mL (≈ 9.96 µM). The figures for the pIC50 in test [2] and in test [3] were 6.12 and below 4.49, respectively.
In test [1], `CS(=O)(=O)c1ccc2nc(NC(=O)NCc3nc(-c4ccccc4)c[nH]3)sc2c1` registered an MIC of 0.5 µg/mL (≈ 1.17 µM). For the same compound, the values for the pIC50 in test [2] and in test [3] were 6.85 and below 4.49, respectively.
Turning to `O=C(CSc1nc2ccccc2[nH]1)Nc1nc2ccc(C(=O)O)cc2s1`, the MIC in test [1] is above 32 µg/mL. The compound further gave a pIC50 in test [2] below 4.49.
Regarding `O=C(CSc1nc2ccccc2[nH]1)Nc1nc2ccccc2s1`, the MIC in test [1] is above 32 µg/mL. The compound further gave a pIC50 in test [2] below 4.49.
`O=C(NCc1nc2ccccc2[nH]1)Nc1nc2ccccc2s1` gave an MIC in test [1] of 32 µg/mL (≈ 99 µM). For the same compound, the negative logarithm of the IC50 (pIC50) in test [2] was 4.55; in test [3] it was below 4.49.
Turning to `CS(=O)(=O)c1ccc2nc(NC(=O)NCc3cccs3)sc2c1`, the MIC in test [1] is above 32 µg/mL. Further, in test [2], the pIC50 is 4.62.
`O=C(O)CSc1nc2ccccc2[nH]1` had a pIC50 in test [2] below 4.49.
Regarding `Nc1nc2ccc(C(=O)O)cc2s1`, the pIC50 in test [2] is below 4.49.
On to `COc1ccc2nc(NC(=O)NCc3nc4ccccc4[nH]3)sc2c1`, for which the MIC in test [1] is 16 µg/mL (≈ 45.3 µM). For the same compound, the pIC50 in test [2] was 5.12; in test [3], below 4.49.

These data come from ChEMBL document CHEMBL1140684, “Phenylimidazole derivatives as new inhibitors of bacterial enoyl-ACP reductase FabK” (Bioorg Med Chem Lett, 2007).
